#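 Exposure lasted 48 hours, with cells grown in 96-well plates and compounds tested at five concentrations. GI50 = concentration required for 50% inhibition of growth.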 Active and inactive are the calls of the source. No stated cut-off is given here; in the data, active = GI50 up to about 1.1 µM and inactive = higher.
# Experiments:
# Assay in all cases: DTP human tumour cell line panel, 48 h
# SK-MEL-28 = test system: SK-MEL-28
# NCI-H522 = test system: NCI-H522
# SK-MEL-5 = test system: SK-MEL-5
# Malme-3M = test system: Malme-3M
# LOX IMVI = test system: LOX IMVI
# EKVX = test system: EKVX
# UACC-62 = test system: UACC-62
# SF-295 = test system: SF-295
# A549 = test system: A549
# KM12 = test system: KM12
# 786-0 = test system: 786-0
# CCRF-CEM = test system: CCRF-CEM
# UACC-257 = test system: UACC-257
# SF-268 = test system: SF-268
# TK-10 = test system: TK-10
# SNB-19 = test system: SNB-19
# RPMI-8226 = test system: RPMI-8226
# HOP-62 = test system: HOP-62
SMILES,GI50 (SK-MEL-28),GI50 (NCI-H522),GI50 (SK-MEL-5),GI50 (Malme-3M),GI50 (LOX IMVI),GI50 (EKVX),GI50 (UACC-62),GI50 (SF-295),GI50 (A549),GI50 (KM12),GI50 (786-0),GI50 (CCRF-CEM),GI50 (UACC-257),GI50 (SF-268),GI50 (TK-10),GI50 (SNB-19),GI50 (RPMI-8226),GI50 (HOP-62)
NC1=NS(=O)(=O)N=C(N)C1=Cc1ccc([N+](=O)[O-])o1,16 µM (inactive),17.7 µM (inactive),15.3 µM (inactive),16 µM (inactive),17.2 µM (inactive),17.9 µM (inactive),16.4 µM (inactive),25.4 µM (inactive),52 µM (inactive),18.5 µM (inactive),17.1 µM (inactive),9.33 µM (inactive),15.5 µM (inactive),17.5 µM (inactive),18.6 µM (inactive),32.8 µM (inactive),17.1 µM (inactive),–
O=C(NCO)NCOCn1c(=O)n(CO)c(=O)n(CO)c1=O,22.1 µM (inactive),–,41.5 µM (inactive),31.5 µM (inactive),19 µM (inactive),> 100 µM (inactive),19.1 µM (inactive),> 91 µM (inactive),66.7 µM (inactive),31 µM (inactive),34.6 µM (inactive),14.4 µM (inactive),49.9 µM (inactive),31.3 µM (inactive),> 100 µM (inactive),> 31.6 µM (inactive),25.4 µM (inactive),> 100 µM (inactive)
NCCSc1cc(O)c2c(c1N)C(=O)c1ccccc1C2=O,> 100 µM (inactive),19.6 µM (inactive),12.9 µM (inactive),26 µM (inactive),–,> 100 µM (inactive),36.7 µM (inactive),46 µM (inactive),> 100 µM (inactive),51.2 µM (inactive),29.9 µM (inactive),16.8 µM (inactive),–,55.8 µM (inactive),> 100 µM (inactive),34 µM (inactive),–,> 100 µM (inactive)
N#[N+][c-]1c(-c2ccccc2)n[nH]c1=O,> 100 µM (inactive),> 100 µM (inactive),–,> 100 µM (inactive),> 100 µM (inactive),> 100 µM (inactive),–,> 100 µM (inactive),> 100 µM (inactive),> 100 µM (inactive),> 100 µM (inactive),> 100 µM (inactive),> 100 µM (inactive),> 100 µM (inactive),> 100 µM (inactive),–,> 100 µM (inactive),–
CC12CC/C(=N/NC(N)=O)C3C1CCCC32,> 100 µM (inactive),> 100 µM (inactive),> 100 µM (inactive),> 100 µM (inactive),> 100 µM (inactive),–,> 100 µM (inactive),> 100 µM (inactive),> 100 µM (inactive),> 100 µM (inactive),> 100 µM (inactive),> 100 µM (inactive),> 100 µM (inactive),> 100 µM (inactive),> 100 µM (inactive),> 100 µM (inactive),> 100 µM (inactive),> 100 µM (inactive)
c1ccc(CN2CCC3(CC2)SSC2(CCN(Cc4ccccc4)CC2)S3)cc1,44 µM (inactive),–,–,53.7 µM (inactive),48.8 µM (inactive),–,82.8 µM (inactive),26.5 µM (inactive),27.7 µM (inactive),45.3 µM (inactive),> 100 µM (inactive),65.9 µM (inactive),26.7 µM (inactive),–,64.4 µM (inactive),–,20.1 µM (inactive),> 100 µM (inactive)
CCOC(=O)CCC(=O)C1c2cccc(O)c2C(=O)c2c(O)cccc21,1.33 µM (inactive),0.408 µM (active),0.226 µM (active),1.78 µM (inactive),0.604 µM (active),–,0.395 µM (active),0.644 µM (active),0.61 µM (active),0.652 µM (active),1.74 µM (inactive),1.1 µM (active),1.69 µM (inactive),0.908 µM (active),2.38 µM (inactive),1.56 µM (inactive),–,1.73 µM (inactive)
CC(C)CCC[C@@H](C)C1CCC2[C@@H]3CC=C4C[C@@H](C(=O)NCC[N+](C)(C)CCCS(=O)(=O)[O-])CC[C@]4(C)C3CC[C@@]21C (stereo partly specified),19.8 µM (inactive),11.5 µM (inactive),19.9 µM (inactive),18.9 µM (inactive),11.7 µM (inactive),16.9 µM (inactive),20.1 µM (inactive),20 µM (inactive),17.3 µM (inactive),17.4 µM (inactive),17.2 µM (inactive),16.2 µM (inactive),20 µM (inactive),21.1 µM (inactive),–,21.8 µM (inactive),20.4 µM (inactive),24 µM (inactive)
COc1ccc([C@H]2CC3C(=O)N(c4ccc(OC)cc4)C(=O)C3c3[nH]c4ccccc4c32)cc1 (stereo partly specified),83.9 µM (inactive),99.5 µM (inactive),46.3 µM (inactive),36.1 µM (inactive),> 100 µM (inactive),> 100 µM (inactive),> 100 µM (inactive),16.7 µM (inactive),47.4 µM (inactive),47 µM (inactive),10.8 µM (inactive),48.4 µM (inactive),> 100 µM (inactive),82 µM (inactive),> 100 µM (inactive),32.1 µM (inactive),–,32.7 µM (inactive)
CC(C)c1ccccc1NC(=O)CCC(=O)NN,> 100 µM (inactive),> 100 µM (inactive),–,> 100 µM (inactive),> 100 µM (inactive),> 100 µM (inactive),> 100 µM (inactive),> 100 µM (inactive),> 100 µM (inactive),> 100 µM (inactive),> 100 µM (inactive),> 100 µM (inactive),> 100 µM (inactive),> 100 µM (inactive),> 100 µM (inactive),> 100 µM (inactive),> 100 µM (inactive),–
Cc1ccc2nc(NC(=O)C(=O)C(C#N)c3nc4ccccc4s3)sc2c1 (stereo unspecified),51.8 µM (inactive),32.1 µM (inactive),19.4 µM (inactive),43.7 µM (inactive),37.2 µM (inactive),39 µM (inactive),30.7 µM (inactive),37.2 µM (inactive),–,47.2 µM (inactive),44.5 µM (inactive),–,28 µM (inactive),51.6 µM (inactive),30.8 µM (inactive),31.8 µM (inactive),28.3 µM (inactive),14.5 µM (inactive)
CSC(=O)C[C@@]12O[C@@H]([C@@H](C)C3CCC4[C@@H]5C(O)CC6=CC(=O)C=C[C@]6(C)C5CC[C@@]43C)C[C@](C)(O1)C(C)(C)O2 (stereo partly specified),17.9 µM (inactive),14.1 µM (inactive),–,23.2 µM (inactive),12.1 µM (inactive),–,10.3 µM (inactive),14.5 µM (inactive),15.5 µM (inactive),16 µM (inactive),16.1 µM (inactive),3.86 µM (inactive),12.6 µM (inactive),16.4 µM (inactive),17.8 µM (inactive),17.5 µM (inactive),4.8 µM (inactive),18.2 µM (inactive)
